Assay: xn = mol fraction of the nth substance listed

CCOCCO + OCCOCCOCCO
101 kPa
Settings	viscosity [mPa·s]
293.15 K, x1 = 0.0493	36.7
293.15 K, x1 = 0.1039	32.11
293.15 K, x1 = 0.1964	25.21
293.15 K, x1 = 0.3004	18.99
293.15 K, x1 = 0.3949	14.53
293.15 K, x1 = 0.4468	12.49
293.15 K, x1 = 0.5005	10.66
293.15 K, x1 = 0.5512	9.194
293.15 K, x1 = 0.6003	7.883
293.15 K, x1 = 0.7017	5.752
293.15 K, x1 = 0.7946	4.246
293.15 K, x1 = 0.9032	2.957
293.15 K, x1 = 0.941	2.603
298.15 K, x1 = 0.0425	31.4
298.15 K, x1 = 0.1132	26.58
298.15 K, x1 = 0.198	21.56
298.15 K, x1 = 0.2956	16.85
298.15 K, x1 = 0.3992	12.84
298.15 K, x1 = 0.4535	11.09
298.15 K, x1 = 0.5008	9.696
298.15 K, x1 = 0.5433	8.635
298.15 K, x1 = 0.5935	7.463
298.15 K, x1 = 0.69	5.545
298.15 K, x1 = 0.8038	3.871
298.15 K, x1 = 0.8966	2.774
298.15 K, x1 = 0.95	2.248
303.15 K, x1 = 0.0543	26.39
303.15 K, x1 = 0.0954	24.22
303.15 K, x1 = 0.2034	19.01
303.15 K, x1 = 0.2991	15.11
303.15 K, x1 = 0.4003	11.78
303.15 K, x1 = 0.4492	10.39
303.15 K, x1 = 0.5007	9.084
303.15 K, x1 = 0.5429	8.086
303.15 K, x1 = 0.5978	6.967
303.15 K, x1 = 0.6987	5.187
303.15 K, x1 = 0.8008	3.732
303.15 K, x1 = 0.9005	2.597
303.15 K, x1 = 0.95	2.081

CCOCCO + Cc1ccccc1C
viscosity [mPa·s], 101 kPa
Settings	298.15 K	308.15 K
x1 = 0.0533	0.777	0.674
x1 = 0.1508	0.817	0.708
x1 = 0.2502	0.867	0.75
x1 = 0.3516	0.931	0.8
x1 = 0.4528	1.009	0.858
x1 = 0.5042	1.056	0.892
x1 = 0.553	1.104	0.926
x1 = 0.6472	1.211	1.001
x1 = 0.7494	1.353	1.096
x1 = 0.8486	1.52	1.204
x1 = 0.954	1.739	1.34

CNC(C)=O + CCCO
303.15 K, 101 kPa
Settings	viscosity [mPa·s]
x1 = 0.1069	1.816
x1 = 0.1939	1.891
x1 = 0.3142	2.033
x1 = 0.3918	2.142
x1 = 0.4791	2.289
x1 = 0.5976	2.537
x1 = 0.6966	2.785
x1 = 0.7922	3.066
x1 = 0.9015	3.443

CC(CC(C)(C)C)CP(=O)(O)CC(C)CC(C)(C)C (configuration not stated) + c1ccccc1
298.15 K, 101 kPa
Settings	viscosity [mPa·s]
x1 = 0.0058	0.631
x1 = 0.0104	0.661
x1 = 0.0122	0.678
x2 = 0.1178	93.82
x2 = 0.2304	71.32
x2 = 0.3732	46.06
x2 = 0.5517	20.77
x2 = 0.6956	8.438
x2 = 0.784	4.43
x2 = 0.7966	4.061
x2 = 0.8411	2.952
x2 = 0.8809	2.165
x2 = 0.8838	2.106
x2 = 0.9333	1.332
x2 = 0.9375	1.29
x2 = 0.9656	0.94
x2 = 0.9738	0.83

CC(CC(C)(C)C)CP(=O)(O)CC(C)CC(C)(C)C (configuration not stated) + C1CCCCC1
298.15 K, 101 kPa
Settings	viscosity [mPa·s]
x1 = 0.007	0.95
x1 = 0.0117	0.998
x1 = 0.015	1.052
x2 = 0.1098	97.92
x2 = 0.1822	85
x2 = 0.3325	59.34
x2 = 0.505	32.7
x2 = 0.6519	16.56
x2 = 0.7568	8.757
x2 = 0.7617	8.623
x2 = 0.851	4.302
x2 = 0.8636	3.779
x2 = 0.8895	3.032
x2 = 0.9226	2.188
x2 = 0.9255	2.102
x2 = 0.9573	1.489
x2 = 0.9686	1.301

CNC(C)=O + COCCO
viscosity [mPa·s], 101.33 kPa
Settings	308.15 K	313.15 K	318.15 K
x1 = 0.0301	1.362	1.242	1.136
x1 = 0.0501	1.393	1.27	1.16
x1 = 0.0752	1.431	1.304	1.191
x1 = 0.1036	1.476	1.343	1.227
x1 = 0.1301	1.515	1.378	1.259
x1 = 0.17	1.574	1.432	1.307
x1 = 0.2032	1.624	1.477	1.348
x1 = 0.2501	1.696	1.541	1.404
x1 = 0.302	1.776	1.613	1.468
x1 = 0.4032	1.94	1.758	1.596
x1 = 0.5037	2.114	1.91	1.73
x1 = 0.6033	2.308	2.074	1.876
x1 = 0.65	2.409	2.16	1.95
x1 = 0.7021	2.526	2.259	2.038
x1 = 0.7503	2.641	2.357	2.124
x1 = 0.8032	2.775	2.477	2.227
x1 = 0.8524	2.908	2.594	2.328
x1 = 0.9035	3.061	2.724	2.439
x1 = 0.9301	3.145	2.795	2.5
x1 = 0.9702	3.277	2.913	2.597

CC12CCC(CC1=O)C2(C)C (configuration not stated) + CCCCCCCCCCO
101.33 kPa, x2 = 0.7
Settings	viscosity [mPa·s]
298.15 K	12.14
303.15 K	10.24
308.05 K	8.898
313.15 K	7.817
318.05 K	6.806
323.05 K	5.915

CC(CC(C)(C)C)CP(=O)(O)CC(C)CC(C)(C)C (configuration not stated) + ClCCCl
298.15 K, 101 kPa
Settings	viscosity [mPa·s]
x1 = 0.0052	0.825
x1 = 0.0094	0.891
x1 = 0.0107	0.931
x2 = 0.0747	93.3
x2 = 0.1457	79.06
x2 = 0.2376	61.57
x2 = 0.3715	42.12
x2 = 0.568	20.09
x2 = 0.7166	9.021
x2 = 0.8017	5.212
x2 = 0.8105	4.99
x2 = 0.8887	2.678
x2 = 0.8942	2.603
x2 = 0.9417	1.597
x2 = 0.9439	1.578
x2 = 0.9767	1.087

Oc1ccc(Cl)cc1 + CCCCNCCCC
298.16 K, 101 kPa
Settings	viscosity [mPa·s]
x1 = 0.4053	3.541
x1 = 0.5045	11.99
x1 = 0.5585	31.68
x1 = 0.6051	56.94
x1 = 0.6526	126.7
x1 = 0.6871	181.4
x1 = 0.7235	251.1
x1 = 0.7533	273.6
x1 = 0.7813	263
x1 = 0.8104	221
x1 = 0.84	163.2
x1 = 0.8686	111.1
x1 = 0.8961	79.37
x1 = 0.9256	53.62
x1 = 0.9749	26.85

CC(C)CCO + CN(C)C=O
Settings	viscosity [mPa·s]
298.15 K, 101 kPa, x2 = 0.5467	1.634
